From publication PMC10057445, “Interactions of N-Mannich Bases of Pyrrolo[3,4-c]pyrrole with Artificial Models of Cell Membranes and Plasma Proteins, Evaluation of Anti-Inflammatory and Antioxidant Activity” (Membranes, 2023)

Target: T1, human serum albumin (HSA) (Homo sapiens, UniProt P02768)
T1 construct: gene ALB; commercial powder (Sigma Aldrich), mature plasma protein
Experiment: intrinsic fluorescence quenching, ex […] nm
Format: binding
Settings: double-log; 297 K, pH 7.4 phosphate, no site marker

T1 sequence (P02768 25-609): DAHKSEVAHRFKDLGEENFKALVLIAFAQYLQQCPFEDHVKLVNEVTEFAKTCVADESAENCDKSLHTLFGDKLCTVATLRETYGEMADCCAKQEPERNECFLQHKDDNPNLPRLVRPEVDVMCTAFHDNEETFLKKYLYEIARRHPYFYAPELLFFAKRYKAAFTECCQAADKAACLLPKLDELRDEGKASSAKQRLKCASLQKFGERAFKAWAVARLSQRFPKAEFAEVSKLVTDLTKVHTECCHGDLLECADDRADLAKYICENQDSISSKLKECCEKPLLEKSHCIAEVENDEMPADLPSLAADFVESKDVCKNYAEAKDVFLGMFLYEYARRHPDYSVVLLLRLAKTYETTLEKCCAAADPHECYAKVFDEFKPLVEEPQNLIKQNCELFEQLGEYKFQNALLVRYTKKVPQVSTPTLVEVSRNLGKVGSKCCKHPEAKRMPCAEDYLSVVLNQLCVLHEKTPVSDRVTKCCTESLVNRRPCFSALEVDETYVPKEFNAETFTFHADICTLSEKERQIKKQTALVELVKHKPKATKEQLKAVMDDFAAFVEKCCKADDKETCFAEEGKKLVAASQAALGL

| SMILES | Binding / Kb × 10^3 [dm^3.mol^-1] |
| --- | --- |
| Cc1c2c(c(C)n1-c1ccccc1)C(=O)N(CN1CCN(c3ccccc3)CC1)C2=O [7a] | 9.12 × 10^3 dm^3·mol^-1 |
| Cc1c2c(c(C)n1-c1ccccc1)C(=O)N(CN1CCN(S(C)(=O)=O)CC1)C2=O [7l] | 1.66 × 10^3 dm^3·mol^-1 |
